How the values were obtained:
Format in all cases: binding, mouse
[1] = system: polyclonal antibodies to risperidone, bleed G2M1; experiment: Indirect competitive microtiter plate immunoassay (ELISA), cross-reactivity, polyclonal anti-serum bleed G2M1; settings: polyclonal antibodies (Example 6a), relative to risperidone = 100%
Experimental: (§1) Ten female BALB/c mice were immunized i.p. with 100 μg/mouse of risperidone [9]-KLH immunogen, as prepared in Example 4, emulsified in Complete Freund's Adjuvant. The mice were boosted once, four weeks after the initial injection with 100 μg/mouse of the same immunogen emulsified in Incomplete Freund's Adjuvant. Twenty days after the boost, test bleeds containing polyclonal antibodies from each mouse were obtained by orbital bleed. The test bleeds were fractionated by centrifugation to yield anti-sera. The anti-sera from these test bleeds, which contain polyclonal antibodies to risperidone [9]-KLH immunogen, were evaluated in Examples 8a and 9.
(§2) The ELISA method for measuring risperidone concentrations was performed in polystyrene microtiter plates (Nunc MaxiSorp F8 Immunomodules) optimized for protein binding and containing 96 wells per plate. Each well was coated with risperidone [9]-BSA conjugate (prepared as in Example 5a) by adding 300 μL of risperidone [9]-BSA conjugate at 10 μg/mL in 0.05M sodium carbonate, pH 9.6, and incubating for three hours at room temperature. The wells were washed with 0.05M sodium carbonate, pH 9.6 and then were blocked with 375 μL of 5% sucrose, 0.2% sodium caseinate solution for 30 minutes at room temperature. After removal of the post-coat solution the plates were dried at 37° C. overnight.
as §2, with “[14]-BSA” for “[9]-BSA”, “5b)” for “5a)”
(§3) This procedure is to find the dilution of antibody or anti-serum to be tested for displacement as in Example 9. The ELISA method for screening risperidone antibodies (produced in Example 6) was performed with the microtiter plates that were sensitized with risperidone-BSA conjugate prepared in Examples 7a and 7b. The antibody screening assay was performed by diluting the murine serum from test bleeds (as in Example 6) containing polyclonal risperidone antibodies to 1:2,000, 1:[…] and 1:54,000 (volume/volume) in phosphate buffered saline containing 0.1% BSA and 0.01% thimerosal. […] (volume/volume) in phosphate buffered saline containing 0.1% BSA and 0.01% thimerosal. […]

[2] = system: polyclonal antibodies to risperidone, bleed G1M1; experiment: Indirect competitive microtiter plate immunoassay (ELISA), cross-reactivity, polyclonal anti-serum bleed G1M1; settings: polyclonal antibodies (Example 6a), relative to risperidone = 100%
Experimental: as §1, §2
as §2, with “[14]-BSA” for “[9]-BSA”, “5b)” for “5a)”
as §3

[3] = system: polyclonal antibodies to risperidone, bleed G1M3; experiment: Indirect competitive microtiter plate immunoassay (ELISA), cross-reactivity, polyclonal anti-serum bleed G1M3; settings: polyclonal antibodies (Example 6a), relative to risperidone = 100%
Experimental: as §1, §2
as §2, with “[14]-BSA” for “[9]-BSA”, “5b)” for “5a)”
as §3

[4] = system: monoclonal antibody to risperidone 4B9-21; experiment: Indirect competitive microtiter plate immunoassay (ELISA), cross-reactivity, monoclonal antibody 4B9-21; settings: monoclonal antibody number 4B9-21 (Example 6b); relative to risperidone = 100%
Experimental: (§4) Mice from example 6a that were immunized with risperidone [9]-KLH prepared in 4 were used to produce monoclonal antibodies. For monoclonal antibodies starting three days before the fusion, the mice were injected i.p. with 400 μg (3 days before fusion), 200 μg (2 days before fusion), and 200 μg (1 day before fusion) of risperidone [9]-KLH in PBS/DMSO prepared in example 4. Spleen cells were isolated from the selected mice and fused with 2×10^7 SP2/0 cells with 50% polyethylene glycol 1500 according to the method of Coligan, J. E. et al., eds., Current Protocols in Immunology, 2.5.1-2.5.8, (1992), Wiley & Sons, NY. The fused cells were plated on ten 96-well plates in DMEM/F12 supplemented with 20% FetalClone I, 2% L-glutamine (100 mM) and 2% 50× HAT. Two to three weeks later, the hybridoma supernatant was assayed for the presence of anti-risperidone antibodies by ELISA (as in example 8b). Cells from the wells that gave positive ELISA results (example 8b) were expanded to 24 well plates. Clones positive by ELISA were subcloned twice by limiting dilution according to the method disclosed in Coligan, J. E. et al., eds., Current Protocols in Immunology, 2.5.8-2.5.17, 1992, Wiley & Sons, NY. Hybridoma culture supernatants containing monoclonal antibody from selected subclones were confirmed for risperidone binding by a competitive ELISA (example 9). […]

[5] = system: polyclonal antibodies to risperidone, bleed G2M5; experiment: Indirect competitive microtiter plate immunoassay (ELISA), cross-reactivity, polyclonal anti-serum bleed G2M5; settings: polyclonal antibodies (Example 6a), relative to risperidone = 100%
Experimental: as §1, §2
as §2, with “[14]-BSA” for “[9]-BSA”, “5b)” for “5a)”
as §3

[6] = system: monoclonal antibody to risperidone 5D5-3; experiment: Indirect competitive microtiter plate immunoassay (ELISA), cross-reactivity, monoclonal antibody 5D5-3; settings: monoclonal antibody number 5D5-3 (Example 6b); relative to risperidone = 100%
Experimental: as §4

[7] = system: antibodies to risperidone (pool of antibodies); experiment: Competitive immunoassay / screening with the pool of antibodies to risperidone
Experimental: The present invention relates to novel antibodies and monoclonal antibodies to risperidone and paliperidone. The antisera of the invention can be conveniently produced by immunizing host animals with the immunogens of this invention. Suitable host animals include rodents, such as, for example, mice, rats, rabbits, guinea pigs and the like, or higher mammals such as goats, sheep, horses and the like. […]
The ELISA method for determining IC50 values and cross-reactivity was performed with the microtiter plates that were sensitized with risperidone-BSA conjugates as described in Examples 7a and 7b. […] The assays were all performed by diluting the concentration of the anti-sera or monoclonal antibodies in each of the wells to the titer determined in Example 8a. […] Following the incubation for color development, 50 μL of stop solution (1.5% sodium fluoride in di H2O) was added to each well to stop the color development and after 20 seconds of shaking the absorbance was determined at 650 nm (Molecular Devices Plate Reader). The amount of antibody in a well was proportional to the absorbance measured and inversely proportional to the amount of risperidone in the sample. The IC50's of risperidone and paliperidone were determined by constructing dose-response curves with the absorbance in the wells plotted versus analyte concentration in the wells. […]

SMILES	Cross-reactivity of competitive immunoassay [1] [%]	Cross-reactivity of competitive immunoassay [2] [%]	Cross-reactivity of competitive immunoassay [3] [%]	Cross-reactivity of competitive immunoassay [4] [%]	Cross-reactivity of competitive immunoassay [5] [%]	Cross-reactivity of competitive immunoassay [6] [%]	binding of the antibodies to the compound (screening) ([7]; antibodies from immunized mice screened against the compound)	percent cross-reactivities relative to risperidone ([7]; measured with this pool of antibodies, ratio of IC50 risperidone to IC50 paliperidone) [%]
Cc1nc2n(c(=O)c1CCN1CCC(c3noc4cc(F)ccc34)CC1)CCCC2 [Risperidone, risperidone]	100	100	100	100	100	100	–	–
Cc1nc2n(c(=O)c1CCN1CCC(c3noc4cc(F)ccc34)CC1)CC(O)CC2 (stereo not shown) [7-hydroxy-risperidone]	65	50	66	30	69	39	–	–
Cc1nc2n(c(=O)c1CCN1CCC(c3noc4cc(F)ccc34)CC1)CCCC2O (stereo not shown) [Paliperidone, paliperidone]	98	81	80	–	81	–	substantial binding	100±20
Fc1ccc2c(C3CCNCC3)noc2c1 [N-dealkyl-risperidone]	0.09	0.02	0.07	–	0.1	–	–	–
